{
  "source": "patent US11291705B2",
  "about": "“Use of caspase-3 inhibitors and caspase-3 activators in the manufacture of medicament for treating cancer and wound healing” (Technion Research & Development Foundation Limited, priority 2016, dated 2022)",
  "key": {"sebaceous gland (SG)": {"test_system": "sebaceous gland (SG)", "experiment": "Sebaceous gland (SG) size and cell proliferation in mice injected subcutaneously with caspase-3 inhibitors or activators", "format": "in vivo", "details": "eight week old mice, subcutaneous injection for 7 days", "procedure": "Immunofluorescence—Skins were embedded in OCT, frozen, sectioned, and fixed in 4% paraformaldehyde. Tail samples were treated with 5 mM EDTA for 4 hours at 37° C. to separate skin epithelium from dermis and fixed in formal saline for 2 hours at room temperature. Dorsal samples were treated with 5 mM EDTA for 6 hours at 37° C. to separate skin epithelium from dermis and fixed in formal saline for 1 hour at room temperature. Samples were blocked for 2 hours in Blocking buffer consisting of 10% Goat serum, 2% BSA, 0.2% Triton-X. Primary antibodies were diluted in blocking buffer and tissue/sections were incubated overnight at 4° C. Whole mounts or sections were washed at least 3 times with PBS. Secondary antibodies were incubated for 1 hour at room temperature followed by 4 washes with PBS. The following primary antibodies were used: YAP (Rabbit, 1:100, Cell Signalling, Mouse 1:100 Santa Cruz), pYAP (Rabbit, 1:100 Cell Signalling), α-E-Catenin (Rabbit, 1:100, Cell Signalling), Ki67 (Rabbit, 1:100, Abcam; Rat, 1:100, eBioscience), CD34 (Rat, 1:100, eBioscience), K15 (Mouse, 1:100, Thermo, Chicken, 1:1000, Abcam), Sox9 (Rabbit, 1:100, Millipore, Goat, 1:50, Santa Cruz). Cleaved-Caspase-3 (Rabbit, 1:100, Cell signalling), Phalloidin (1:250, Life Technologies). TUNEL was performed using ApopTag TdT (Millipore). […] Analysis was performed on Zeiss LSM 880 confocal microscope."}, "α-Catenin": {"test_system": "α-Catenin", "experiment": "α-Catenin levels in low confluent HaCaT cells", "format": "cell-based", "method": "(§1) Cell culture—The HaCaT and HEK293 cell lines were cultured in DMEM medium supplemented with 10% FBS, 1% P/S (Pen/Strep) and 1% L-glutamine. Integrin α6^+CD34^+ HFSCs and integrin α6^+CD34^−EGFP^high SGPZ cells were isolated and cultured in HFSC media on sustaining J2 feeder cells. Serum was chelated for a calcium concentration of 50 μM. […] Cells were fixed in 4% PFA for 10 minutes for immunofluorescence analysis or harvested for protein or RNA extraction.\nTUNEL was performed using ApopTag TdT (Millipore). […] Analysis was performed on Zeiss LSM 880 confocal microscope.\nThe levels of α-Catenin are known to be a critical factor in the regulation of YAP (27). In low confluent cells, diminished levels of α-Catenin serve as a mechanotransduction mechanism that instructs the nuclear translocation of YAP and drives proliferation (27, 33). […] The present inventors therefore examined the levels of α-Catenin both in vitro and in vivo, by employing both Western blot analysis and immunofluorescence."}, "YAP [1]": {"test_system": "YAP", "experiment": "YAP localization and pYAP levels in HEK293 cells", "format": "cell-based", "method": "as §1"}, "501A melanoma cell line": {"test_system": "501A melanoma cell line", "experiment": "Proliferation of melanoma cell line 501A", "format": "cell-based", "description": "(§2) FIGS. 14A-C depict inhibition of Caspase-3 attenuates proliferation of melanoma cells. […] FIG. 14C—Immunofluorescence of decreased Ki67^+ cells (green) after 4 days of Caspase-3 inhibition. Scale bars, 20 μm (FIG. 14C right panels), 100 μm (FIG. 14A, FIG. 14B panels).\n(§3) In order to examine this hypothesis, the present inventors first investigated the effect of caspase-3 inhibition on the proliferation rate of melanoma cells. […] Similar results were also obtained when examining 4 additional cell types (HaCaT keratinocytes, Hek293E3, K15 SG progenitors and hair follicle stem cells) (FIGS. 10A-F)."}, "[2]": {"test_system": "integrin α6+CD34−EGFPhigh SGPZ cells", "experiment": "Proliferation and expansion of isolated SGPZ cells treated with caspase-3 inhibitors", "format": "cell-based, mice", "details": "z-DEVD-fmk added initially", "procedure": "Flow Cytometry—SGPZ cell isolation and FACS analysis were performed with K15-EGFP mice and CD34, integrin α6 and Sca1 antibodies. K15-GFP^high cells were isolated from ears and dorsal skin of 8-week old B6.Cg-Tg(Krt1-15-EGFP)2Cot/J mice."}, "[3]": {"test_system": "integrin α6+CD34+ HFSCs, HaCaT keratinocytes and Hek293E3 cells", "experiment": "Expansion of other cell types treated with caspase-3 inhibitors", "format": "cell-based", "details": "one treatment", "source_text": "In order to examine whether Caspase-3 affects the expansion of other cell types the present inventors isolated integrin α6^+CD34^+ HFSCs from second telogen mice."}, "human melanoma cells": {"test_system": "human melanoma cells", "experiment": "GFP-infected human melanoma cells injected into recipient mice", "details": "mouse, in vivo", "method": "FIG. 15A—Melanoma cell were injected into recipient mice. […] Representative image 6 days after first treatment. FIG. 15B—quantification of tumor development indicates inhibition of tumor size in response to caspase-3 inhibition. FIG. 15C—Extracted tumors were analyzed for proliferation using the Ki67 marker and the presence of GFP^+ melanoma cells. FIG. 15D—Tumors treated with the caspase-3 activator ABT-199 result in a dramatic increase in tumor mass. […] Scale bars, 20 μm.\nExamination of the effect of caspase-3 inhibition on melanoma formation in vivo—For this aim human melanoma cells were stably infected with GFP. Cells were then injected into to recipient mice and the effect of administrating caspase-3 inhibitors was monitored."}, "B16F10 melanoma cells": {"test_system": "B16F10 melanoma cells", "experiment": "B16F10 melanoma cells in vitro: growth, Ki67, pYAP, α-Catenin", "format": "cell-based", "description": "FIG. 23D—A histogram depicting quantifications of 501-A total cells number after treatment with Z-DEVD-fink (SEQ ID NO: 71). FIG. 23E—Images depicting B16F10 melanoma cells stained for Ki67 (red), active cleaved Caspase-3 (green) and nuclear counterstain DAPI (blue). […] Insets are zoom in on specific cells, Denotation: CP3, Caspase-3. Scale bars: 100 μm. ** (P<0.01), *** (P<0.001).\nFIG. 24A—Images depicting B16F10 melanoma cells stained for pYAP (red). […] FIG. 24D—Images depicting B16F10 melanoma cells stained for α-Catenin (green). […] FIG. 24E—Immunoblot analysis of proteins isolated from B16F10 melanoma cells using antibodies against pYAP, α-Catenin and α-Tubulin as control."}, "YAP target genes": {"test_system": "YAP target genes", "experiment": "RT-PCR of YAP dependent target genes in treated HaCaT cells", "format": "cell-based", "details": "relative to DMSO treated cells", "procedure": "RNA extraction, reverse transcription and real-time PCR (RT-PCR)—RNA was isolated using Trizol (Sigma) and up to 2 μg of RNA were subjected to cDNA synthesis (Applied Biosystems). Real time PCR was carried out using the PerfeCTa SYBR Green FastMix (Quanta), with gene-specific primers [RpLp0 [sequence] […] Amplicon levels were analysed in triplicate and quantitated relative to a standard curve comprising cDNA, and values normalized to levels of the housekeeping gene (Rplp0 or Gapdh). Reactions were: 3 minutes at 95° C., then 40 cycles of 10 seconds at 95° C. and 30 seconds at 60° C. with addition of melt curve step: 10 seconds at 95° C., and increments of 0.5° C. every 5 seconds between 65° C. to 95° C."}, "YAP [4]": {"test_system": "YAP", "experiment": "YAP nuclear translocation and pYAP levels in EGFPhigh SGPZ cells", "format": "cell-based, mice", "details": "immunoblot", "method": "as §1\nGiven that Caspase-3 inhibition hindered cell number and proliferation in vitro the present inventors next examined whether this was mediated via YAP in EGFP^high SGPZ cells using K15^+ SGPZ cells. […] Similar findings as to effect of caspase-3 inhibition on YAP activation and proliferation were also obtained in HaCaT and Hek293E3 cells (FIGS. 3J-K, FIGS. 11B-F)."}, "[5]": {"test_system": "624-38 melanoma cell line", "experiment": "Proliferation of melanoma cell line 624-38", "format": "cell-based", "description": "as §2, §3"}, "[6]": {"test_system": "excision wounds (1 cm^2) on dorsal skin", "experiment": "Wound repair of full thickness excision wounds on dorsal skin", "format": "in vivo, mice", "description": "For all wound repair experiments, mice were sedated with isofluorane. Mice were shaved with electric clippers and treated topically with a hair removal cream for a few minutes (Nair). Full-thickness excision wounds (1 cm^2) were generated on the dorsal skins and monitored for wound coverage. PWI, mice were individually housed. At the desired time PWI, mice were euthanized with CO2 and the wounded skins were harvested and either embedded in OCT or prepared for whole mounts as described above or for protein extraction.\nInhibition of caspase-3 impairs wound repair—Since YAP is known to play a chief role in regeneration (34), the present inventors investigated whether in vivo inhibition of Caspase-3 affects the wound repair dynamic by modulating YAP activity. […] Full thickness excision wounds (1.0 cm^2) were generated on the dorsalbacks and monitored for wound coverage. In control mice, three days post wound infliction (PWI) the wound size was reduced by 60% while in Ivachtin and z-DEVD-fink (SEQ ID NO: 71) treated mice, it was reduced by only 10% and 20%, respectively (FIG. 5A and FIG. 5B)."}},
  "data": [
    {"substance": "z-DEVD-fmk", "values": [
      {"measurement": "SG size", "setting": "sebaceous gland (SG)", "value": "decrease in SG size"},
      {"measurement": "levels of α-Catenin", "setting": "α-Catenin", "value": "increased levels"},
      {"measurement": "nuclear YAP localization", "setting": "YAP [1]", "value": "Decreased nuclear YAP localization"},
      {"measurement": "pYAP levels", "setting": "YAP [1]; Western blot", "value": "increased pYAP levels"},
      {"measurement": "cell proliferation and number", "setting": "501A melanoma cell line", "value": "dramatic decrease"},
      {"measurement": "cell number", "setting": "[2]", "value": "dramatically inhibited"},
      {"measurement": "number of formed colonies", "setting": "[2]", "value": "dramatically inhibited"},
      {"measurement": "expansion of cells", "setting": "[3]", "value": "impaired the expansion"},
      {"measurement": "effect on tumor development, one inhibitor compared with the other", "setting": "human melanoma cells", "value": "stronger effect"},
      {"measurement": "proliferative (Ki67) cells", "setting": "B16F10 melanoma cells", "value": "reduced levels of proliferative cells"},
      {"measurement": "phosphorylated YAP-positive cells (pYAP+)", "setting": "B16F10 melanoma cells; compared to DMSO", "value": "significant increases"},
      {"measurement": "growth of B16F10 melanoma cells", "setting": "B16F10 melanoma cells; continuous presence of inhibitor", "value": "hindered"},
      {"measurement": "ErbB4 expression, downregulation", "setting": "YAP target genes", "value": 6, "unit": "fold"},
      {"measurement": "HOXA5 expression, decrease", "setting": "YAP target genes", "value": 2, "unit": "fold"},
      {"measurement": "HOXC13 expression, decrease", "setting": "YAP target genes", "value": 5, "unit": "fold"},
      {"measurement": "WTIP expression, downregulation", "setting": "YAP target genes", "value": 2, "unit": "fold"},
      {"measurement": "levels of pYAP", "setting": "YAP [4]", "value": "increased pYAP levels"},
      {"measurement": "cell proliferation and number", "setting": "[5]", "value": "dramatic decrease"},
      {"measurement": "de novo HF regeneration from the wound bed", "setting": "[6]; 20 and 30 days PWI", "value": "inhibited"},
      {"measurement": "wound closure", "setting": "[6]; FIGS. 19A-F", "value": "significant decrease"},
      {"measurement": "cells positive for nuclear YAP in the wound border", "setting": "[6]; mouse, in vivo", "value": "Decreased nuclear YAP"},
      {"measurement": "wound size reduced by", "setting": "[6]; three days post wound infliction, injected from 2 days prior to wounding", "value": 20, "unit": "%"}
    ]}
  ]
}
